Results from a melting point compilation (Tetko et al.; mined from patent text by program, amines drawn as free bases though some values may be those of a salt).

melting point [°C]	SMILES
229 to 236	COc1ccc(C(=O)c2cccc(C(=O)O)c2)c(O)c1
157 to 160	CSc1ccc2c(c1)C(=O)OC2=O
86 to 89	CC(C)c1csc(/C=C/c2cc([N+](=O)[O-])ccc2Cl)n1
118 to 119	CC(C)c1nc(CCCOCc2ccccc2)[nH]c1Sc1cc(Cl)cc(Cl)c1
147 to 149	CCCCCCCCCc1cc(C(=O)O)n[nH]1
203 to 205	O=C1NC(=O)c2c1c(-c1ccccc1Cl)cc1c2c(Br)c(CO)n1CCCO
100 to 102	O[C@H]1c2cc(OCc3ccncc3)ccc2OC[C@H]1Cc1cccnc1 (relative stereo)
163 to 164	O=C1C2CC(c3ccc([N+](=O)[O-])cc3)(C2)C(=O)N1C1CCCCC1
158	O=S(=O)(Oc1ccc(-c2cc3ccccc3[nH]2)cc1O)c1ccccc1
121 to 123	O=C(O)Cc1ccc(OCc2ccccc2)c(Cl)c1
169	N#Cc1cnn2c(C(F)(F)F)cc(-c3ccccc3Cl)nc12
128	COC(=O)C(C)c1ccc(N2Cc3ccccc3C2=O)cc1 (stereo not given)
82 to 83	CN(C)CCCCCOc1ccc2oc(-c3ccccc3)cc(=O)c2c1
96	O=C1C=C2CCCCC2N1c1ccc(OCCN2CCOCC2)cc1 (stereo not given)
293 to 295	Nn1c(=O)c(=O)[nH]c2c(Br)cc(F)cc21
215 to 216	CCCN(CCC)c1ccc2nc3c4ccccc4c(=Nc4ccncc4)cc-3oc2c1
146 to 148	CN(C[C@H]1CC[C@H](c2nc3ccccc3[nH]2)CC1)C(=O)OCc1ccccc1
106 to 107	COc1ccc(-n2nc(C(C)C)cc2-c2ccc(OCCNC(N)=O)cc2)cn1
230	COC(=O)c1ccc2c(c1)c1cc(-c3ccc(C=O)cc3)c(=O)n(C)c1n2C
58	CCCCOC(=O)S(=O)(=O)Nc1sc(CC(C)C)cc1-c1ccc(Cn2c(-c3ccccc3)nc(OC)c2C=O)c(Cl)c1
202 to 204	c1ccc(-c2cccc3c2CCN(Cc2c[nH]c4ncccc24)C3)cc1
82 to 84.5	OC(CCc1ccc(Cl)s1)Cn1ccnc1 (stereo not given)
68 to 69	COC(=O)C(=O)c1ccc(OCCOc2cccc(F)c2)cc1
154	CCC1CC(=O)N(Cc2ccc(C(=O)NC3CCCC3)cc2)N=C1c1ccc(OC)c(OC)c1 (stereo not given)

melting point [°C]	SMILES
> 260	Nc1nc(N)nc(-c2csc(-c3ccc(C(F)(F)F)cc3)n2)n1
94 to 96	OCC(O)COCCCCCCCCOc1ccc(-c2ccccc2)cc1 (stereo not given)
173	COC(=O)Cc1cc(C(=O)c2ccc(F)cc2)ccc1O
155 to 158	O=C(O)C1COc2cc(Cl)c(Cl)cc2O1 (stereo not given)
203 to 204	O=C(Nc1ccc(-n2nc(C(F)(F)F)cc2C(F)(F)F)cc1)c1cccc([N+](=O)[O-])c1
223	CC(C)(C)c1cc(-c2cc(-c3ccc(C(=O)O)cc3)ccc2OCCO)ccc1N1CCCC1
144 to 145	COc1ccnc(N2CCN(CC3(CNC(C)=O)C=CC=CC3)CC2)n1 (stereo not given)
252 to 255	Cc1nnc(NC(=O)C2=C(O)c3ccc4ccccc4c3S(=O)(=O)N2C)s1
58 to 60	CCN(CC)C(=O)n1nc(Oc2ncc(C(F)(F)F)cc2Cl)cc1C(F)(F)F
215 to 216	O=C(O)c1cc(-n2c(-c3ccc(Br)cc3)cc3c2CCC3)ccc1O
123	CCOC(=O)C(=CC=C1CCc2ccccc2C1=O)N(C)C
246 to 247	CCNC(=O)Nc1cc(-c2c(-c3ccc(F)c(C)c3)nc3cc(C(C)(C)C)c(Cl)nn23)ccn1
97 to 100	Oc1ccccc1Oc1ccc(Cl)cn1
120	CCn1c(N)c(-c2ncc[nH]2)c(=O)c2ccc(-c3ccc(CC(=O)NCc4ccncc4)nc3)nc21
155 to 156	N#CCCNC(=O)c1cccc(-c2ccc3c(c2)N(c2cccc(Cl)c2Cl)CC3)c1
320	O=c1[nH]c2ccccc2n(Cc2nnn[nH]2)c1=O
99.5 to 102	O=c1c(Cl)nsnc1Sc1ccccc1
128 to 129	O=C(O)CCc1nn(-c2ccc(F)cc2)c2c1CCCC2
244 to 247	CS(=O)(=O)N1Cc2cccc(-c3ccc4cnc(Nc5ccc(C6CCN(CC(N)=O)CC6)cc5)nn34)c2C1
157 to 159	CCCC(=O)c1cc2c(s1)CCC1CC(=O)N(c3ccc(Cl)cc3)N=C21 (stereo not given)
66 to 68	COc1ccc(F)c2c1CCC(C=O)C2=O (stereo not given)
241	CC(=O)OCC1OC(n2c(=S)[nH]c3cc(Cl)c(Cl)cc32)C(OC(C)=O)C1OC(C)=O (stereo not given)
44 to 46	COc1cccc(CC[C@H](O)CO[Si](C)(C)C(C)(C)C)c1O
164 to 166	NC(=S)c1ccc(O)cc1O

melting point [°C]	SMILES
72	COc1ccc(CN2C(=O)C(C)(c3cc(CN4CCCCC4=O)ccc3Cl)c3cc(Cl)ccc32)c(OC)c1 (stereo not given)
150 to 152	CCOC(=O)C1=C(C)NC(=S)N(C(=O)OC(C)C)C1c1cccc([N+](=O)[O-])c1 (stereo not given)
155 to 156	CCOC(=O)C(=O)Nc1cc(OC)cc(NC(=O)C(=O)OCC)n1
85	O=[N+]([O-])c1ccc(SNCCO)c(C(Cl)(Cl)Cl)c1
204	O=C(NC(=O)c1c(Cl)cccc1Cl)Nc1cc(Br)c(Br)cc1C(F)(F)F
167 to 168	CCOC(=O)/C(=N\OCC#N)c1csc(N)n1
124 to 125	COC(=O)c1nn(-c2cccc(C(F)(F)F)c2)c(=O)cc1OC
168 to 172	COc1ncc(Br)cc1/C=C/C(=O)c1ccc(Cl)cc1
165 to 167	Cc1ncn(Nc2ccccc2)c1-c1ccccc1
86 to 92	CN(C)CCNc1ccc(Cl)nn1
133 to 135	O=C(O)CCC(O)c1ccc(-c2ccccc2)c(F)c1 (stereo not given)
189 to 191	CC(C)n1nc(-c2ncc(N)nc2-c2ccccc2Br)ccc1=O
216 to 217	C(=Cc1ccc(-c2noc3ccccc23)cc1)c1ccc(-c2nc(-c3ccccc3)no2)cc1
228	Cc1ccc(-c2cc(-c3ccc(Cl)cc3)n[nH]2)cc1
109 to 110	CCOC(Cc1ccc(NCc2ccc(O)cc2)cc1)C(=O)OC (stereo not given)
151 to 154	Cc1ccc(-c2cn(C)cc(-c3ccccc3C)c2=O)cc1
230 to 233	N#Cc1ccc2nc(C(=O)NCc3ccnc(OCC4CCOC4)c3)[nH]c(=O)c2c1 (stereo not given)
144 to 146	c1ccc(CN2CCCC3(C2)OC(c2ccccc2)(c2ccccc2)c2ccccc23)cc1 (stereo not given)
107 to 108	O=C1C=C(Oc2ccc(Oc3ccccc3)cc2)C(O)O1 (stereo not given)
260	Cc1cccc2nc(NC(=O)c3ccc(C(C)(C)CCC(=O)O)cc3)cn12
51	CCCCCC(=O)OCc1nccc(Oc2ccc3c(C(=O)OCC)csc3c2)n1
124 to 125	CCNc1nc(C)c(-c2ccnc(Nc3cccc(S(=O)(=O)NCCO)c3)n2)s1
135 to 137	NC(=O)c1cn(CCBr)nc1[N+](=O)[O-]
133 to 134	CCOCCNC(=O)Oc1cccc(NC(=O)C=C(C)OC)c1

melting point [°C]	SMILES
64 to 66	CC1(C)COc2ccc(Cl)cc21
222 to 225	CCN1CCc2ccc(Nc3ncc([N+](=O)[O-])c(Nc4ccccc4C(=O)NC)n3)cc2CC1
150	COc1ccc(-c2ccc3c(c2)CC[C@H]2N(C)C(=O)CC[C@]32C)cc1
214	COc1ccc(C2CC(C(C)(C)C)=NN2c2ccc(C(=O)O)cc2)c(OC)c1 (stereo not given)
116 to 118	COC(=O)OC1C(OCc2ccccc2)C(COCc2ccccc2)OC(C)(OCc2ccccc2)C1NC(C)=O (stereo not given)
177 to 179	CNC(=O)C(Cc1ccc2ccccc2c1)NC(=O)OC(C)(C)C (stereo not given)
171 to 173	CCC(=O)NC(=O)c1cc([N+](=O)[O-])cnc1C
202	O=[N+]([O-])C=C1NCCN1Cc1cc(Br)no1
198 to 202	Cc1ncncc1NC(=O)Nc1ccc(-n2nc(C(F)(F)F)cc2C2CC2)c(F)c1
106 to 107	O=C(Nc1cn(C2CCCCO2)nc1C(=O)NCCCOc1ccccc1)c1ccccn1 (stereo not given)
> 250	O=C1Nc2cccc(O)c2C12COc1cc3c(cc12)OCCO3 (stereo not given)
118 to 120	O=C(c1ccc([N+](=O)[O-])cc1)c1c(Cl)cc(O)cc1Cl
167 to 169	CNS(=O)(=O)c1ccc(C=C2C(C)=C(CC(=O)OC)c3cc(OC)ccc32)cc1
216 to 217	CCCN(c1ccc(C(F)(F)F)cc1)c1nc(=O)c2cccnc2s1
143 to 144	CCOc1ccccc1-c1oc2c(C(=O)OCCO)cccc2c(=O)c1C
125 to 126	CC(C)CN/C(=C1/Sc2ccccc2C1=O)c1ccccc1
130	CCOC(=O)c1c(OCC)nsc1NC(=O)Oc1ccccc1
186	CC1(C)SC2C(N3C(=O)C(C4=CCC=CC4)NC3(C)C)C(=O)N2C1C(=O)O (stereo not given)
71 to 74	O=C(Oc1ccc(Oc2ccccc2)cc1)N1CCC(CO)CC1
185 to 187	CCC1(Cl)Cc2cc(OCC(=O)O)c(Cl)c(Cl)c2C1=O (stereo not given)
238 to 240	O=C1c2cccc([N+](=O)[O-])c2C(=O)N1CC(=O)N1c2ccccc2N(Cc2ccccc2)C(=O)[C@H]2CCC[C@H]21 (relative stereo)
124 to 126	CN(C)S(=O)(=O)CC(CS(=O)(=O)c1ccc(Oc2ccc(OC(F)(F)F)cc2)cc1)N(O)C=O (stereo not given)
105 to 107	COc1ccc(C(=O)/C(=C\c2ccccc2)C(=O)OC(C)(C)C)c(O)c1

SMILES	melting point [°C]
Cc1nnc(Br)n1-c1ccc(Cl)cc1C(=O)c1ccccc1	198 to 199
COCc1noc(-c2ncn3c2[C@@H]2CCCN2C(=O)c2c(Cl)cccc2-3)n1	168 to 170
Nc1cccc(-c2ccc(CCN3CC4C(N)C4C3)cc2)n1 (stereo not given)	187 to 190
CC1(C)CCCC(Cl)(Cl)C(=O)N1	148 to 155
Cc1ccc2c3c(ccc2n1)OCC(CN1CC=C(c2cc4ccccc4s2)CC1)O3 (stereo not given)	174 to 176
